# Experimental data taken from patent US6677350B1, “Beta-fluoroethyl thiourea compounds and use” (priority 1999, dated 2004).
# Read-outs that look alike come from different tables or passages of the source.
# System: M. tuberculosis H37Rv (ATCC 27294)
# Experiment: In vitro anti-tuberculosis screening, BACTEC 460 radiometric system, percent inhibition of growth
# Assay type: cell-based, Mycobacterium tuberculosis
# Details: Mtb H37Rv; for inhibition at 12.5 µg/mL: Mycobacterium tuberculosis
compound,measurement,setting,value
"O=C1C[C@@H](c2ccc(O)cc2)Oc2c1c(O)cc(O[C@@H]1O[C@H](CO)[C@@H](O)[C@H](O)[C@H]1O)c2[C@H]1C(=O)c2c(O)cc(O)cc2O[C@@H]1c1ccc(O)cc1 [Compound 178, Multifloraside]",Activity % Inhibition at 12.5 μg/mL (biflavonoids),"12.5 μg/mL, BACTEC 12B medium",0%
O=c1cc(-c2cccc(I)c2)oc2ccccc12 [Compound 101],anti-TB activity in words,12.5 μg/mL,weakly active or inactive
same,Activity % Inhibition at 12.5 μg/mL (flavones),"12.5 μg/mL, BACTEC 12B medium",22%
COc1ccc(C(=O)/C=C/c2cccnc2)cc1 [Compound 71],Activity % inhibition at 12.5 μg/mL (chalcone-like compounds),"12.5 μg/mL, BACTEC 12B medium",0%
COc1ccc2c(c1)OC(c1cccc([N+](=O)[O-])c1)CC2=O (stereo not shown) [Compound 147],Activity % Inhibition at 12.5 μg/mL (flavanones),"12.5 μg/mL, BACTEC 12B medium",0%
"COc1ccc(C2CC(=O)c3c(cc(OC)c(-c4c(OC)cc5c(c4OC)C(=O)CC(c4ccc(OC)cc4)O5)c3OC)O2)cc1 (stereo not shown) [Compound 157, 6-6′′-Binaringenin hexamethylether]",anti-TB activity in words,12.5 μg/mL,inactive
same,Activity % Inhibition at 12.5 μg/mL (biflavonoids),"12.5 μg/mL, BACTEC 12B medium",2%
COc1ccc(/C=C/C(=O)c2cc(I)ccc2O)cc1 [Compound 48],Activity % inhibition at 12.5 μg/mL (chalcones),"12.5 μg/mL, BACTEC 12B medium",0%
same,inhibition of the growth of Mtb,drug concentration 12.5 μg/mL,0%
COc1ccc(-c2oc3ccc(C(=O)O)cc3c(=O)c2O)cc1 [Compound 130],Activity % Inhibition at 12.5 μg/mL (flavones),"12.5 μg/mL, BACTEC 12B medium",0%
O=c1cc(-c2ccccc2I)oc2ccccc12 [Compound 100],anti-TB activity in words,12.5 μg/mL,weakly active or inactive
same,Activity % Inhibition at 12.5 μg/mL (flavones),"12.5 μg/mL, BACTEC 12B medium",22%
same,inhibition of the growth of Mtb,drug concentration 12.5 μg/mL,22%
"O=c1cc(-c2ccc(Oc3c(O)cc4oc(-c5ccc(O)cc5)cc(=O)c4c3O)cc2)oc2cc(O)cc(O)c12 [Compound 167, Hinokiflavone]",inhibition at 12.5 µg/mL,"12.5 μg/mL, BACTEC 12B medium, read-out: Activity % Inhibition at 12.5 μg/mL (biflavonoids)",0%
6-2′′′-Biapigenin [Compound 158],Activity % Inhibition at 12.5 μg/mL (biflavonoids),"12.5 μg/mL, BACTEC 12B medium",1%
O=c1c(O)c(-c2ccccc2)oc2cc(Cl)ccc12 [Compound 81],Activity % Inhibition at 12.5 μg/mL (flavones),"12.5 μg/mL, BACTEC 12B medium",58%
O=c1cc(-c2ccccc2)oc2c(I)cccc12 [Compound 114],anti-TB activity in words,12.5 μg/mL,weakly active or inactive
same,Activity % Inhibition at 12.5 μg/mL (flavones),"12.5 μg/mL, BACTEC 12B medium",5%
O=C(/C=C/c1cccc(O)c1)c1ccccc1O [Compound 10],Activity % inhibition at 12.5 μg/mL (chalcones),"12.5 μg/mL, BACTEC 12B medium",18%
COc1ccc(C(=O)/C=C/c2cccc(I)c2)c(O)c1 [Compound 43],Activity % inhibition at 12.5 μg/mL (chalcones),"12.5 μg/mL, BACTEC 12B medium",47%
same,inhibition of the growth of Mtb,drug concentration 12.5 μg/mL,47%
O=c1c(I)c(-c2ccccc2)oc2ccccc12 [Compound 127],anti-TB activity in words,12.5 μg/mL,weakly active or inactive
same,Activity % Inhibition at 12.5 μg/mL (flavones),"12.5 μg/mL, BACTEC 12B medium",0%
Suceedaneaflavanone [Compound 169],Activity % Inhibition at 12.5 μg/mL (biflavonoids),"12.5 μg/mL, BACTEC 12B medium",0%
O=c1c(O)c(-c2cccc(Br)c2)oc2ccccc12 [Compound 80],Activity % Inhibition at 12.5 μg/mL (flavones),"12.5 μg/mL, BACTEC 12B medium",60%
"O=C1CC(c2ccccc2)Oc2cc(Br)ccc21 (stereo not shown) [Compound 136, 7-bromo-flavanone]",inhibition at 12.5 µg/mL,"12.5 μg/mL, BACTEC 12B medium, read-out: Activity % Inhibition at 12.5 μg/mL (flavanones)",53%
same,inhibition at 12.5 µg/mL,"drug concentration 12.5 μg/mL, read-out: inhibition of the growth of Mtb",53%
COc1ccc(-c2cc(=O)c3ccc(I)cc3o2)cc1 [Compound 128],Activity % Inhibition at 12.5 μg/mL (flavones),"12.5 μg/mL, BACTEC 12B medium",0%
COc1ccc(/C=C/C(=O)c2cc(Br)ccc2O)cc1 [Compound 37],Activity % inhibition at 12.5 μg/mL (chalcones),"12.5 μg/mL, BACTEC 12B medium",23%
same,inhibition of the growth of Mtb,drug concentration 12.5 μg/mL,23%
O=C(/C=C/c1ccccc1)c1ccc(I)cc1O [Compound 45],Activity % inhibition at 12.5 μg/mL (chalcones),"12.5 μg/mL, BACTEC 12B medium",21%
same,inhibition of the growth of Mtb,drug concentration 12.5 μg/mL,21%
O=c1cc(-c2ccccc2)oc2cc(Br)ccc12 [Compound 106],anti-TB activity in words,12.5 μg/mL,weakly active or inactive
same,Activity % Inhibition at 12.5 μg/mL (flavones),"12.5 μg/mL, BACTEC 12B medium",15%
O=C(C=Cc1ccc(Br)cc1)c1ccccc1O [Compound 33],Activity % inhibition at 12.5 μg/mL (chalcones),"12.5 μg/mL, BACTEC 12B medium",70%
same,inhibition of the growth of Mtb,drug concentration 12.5 μg/mL,70%
O=C1c2ccccc2OC(c2cccc(Cl)c2)C1O (stereo not shown) [Compound 135],Activity % Inhibition at 12.5 μg/mL (flavanones),"12.5 μg/mL, BACTEC 12B medium",63%
COc1ccc(-c2cc(=O)c3cc(C(=O)O)ccc3o2)cc1 [Compound 115],Activity % Inhibition at 12.5 μg/mL (flavones),"12.5 μg/mL, BACTEC 12B medium",2%
O=c1c(O)c(-c2ccccc2)oc2c(F)cccc12 [Compound 90],Activity % Inhibition at 12.5 μg/mL (flavones),"12.5 μg/mL, BACTEC 12B medium",43%
COc1ccc(/C=C/C(=O)c2ccc([N+](=O)[O-])cc2)cc1 [Compound 4],Activity % inhibition at 12.5 μg/mL (chalcones),"12.5 μg/mL, BACTEC 12B medium",62%
"COc1ccc(-c2oc3ccccc3c(=O)c2O)cc1 [Compound 88, 4′-methoxyflavonol]",increase in activity compared to 92,12.5 μg/mL,10%
same,inhibition at 12.5 µg/mL,"12.5 μg/mL, BACTEC 12B medium, read-out: Activity % Inhibition at 12.5 μg/mL (flavones)",48%
COc1ccc(O)c(C(=O)/C=C/c2ccco2)c1 [Compound 69],Activity % inhibition at 12.5 μg/mL (chalcone-like compounds),"12.5 μg/mL, BACTEC 12B medium",0%
